Where two headings read alike, the source gives them in different places.

The text below walks through data of article PMC8058401, “Identification and Characterization of Zika Virus NS5 Methyltransferase Inhibitors” (Frontiers in Cellular and Infection Microbiology, 2021).

Series [1] has as its system ZIKV. The following applies: cited from earlier work.
Series [2] is described as follows: CCK-8 cytotoxicity assay. The following applies: human. In general terms: Tetrazolium assays rely on reduction of a dye to a coloured formazan, in cell work by metabolically active cells.
In series [3] the target is ZIKV NS5 MTase (WT-MTase) (Zika virus, UniProt A0A024B7W1). The series is described as follows: biochemical.
In series [4] the test system is ZIKV (SMGC-1). The series can be described thus: cell viability assay based on ZIKV-induced cytopathic effect (CPE) in Huh-7 cells. The following applies: Zika virus, Huh-7, read-out: EC50, protection from ZIKV induced CPE. In general terms: Cytopathic effects are the visible damage that an infection or toxin causes in cultured cells.
Series [5] has as its target ZIKV NS5 WT-MTase (Zika virus, UniProt A0A024B7W1). The series can be described thus: surface plasmon resonance assay, WT-MTase. It counts as binding. In general terms: SPR reads the build-up and loss of mass on a sensor chip optically.
Series [6] concerns SARS-CoV-2 3CL-protease. Details: method as in Jang et al., 2020. The following applies: dose-dependent; ref Jang et al., 2020; cited from earlier work.
The subject of series [7] is ZIKV. The series is described as follows: virus yield reduction assay by qRT-PCR in Huh-7 cells. The following applies: Huh7 cells, 72 hpi; for effect on viral RNA copy numbers: dose dependent.
For series [8], the target named is ZIKV NS5 K105A-MTase (Zika virus, UniProt A0A024B7W1, K2625A). The series can be described thus: luminescence-based methyltransferase assay, K105A-MTase.
Series [9] addresses NS5 MTase of DENV. Details: method as in Dong et al., 2008. The following applies: ref Dong et al., 2008; cited from earlier work.
The target in series [10] is NS5 MTase of WNV. The arrangement: method as in Dong et al., 2008. The following applies: ref Dong et al., 2008; cited from earlier work.
Series [11] relates to WNV. The arrangement: method as in Dong et al., 2008; Tao et al., 2018. The following applies: ref Dong et al., 2008; Tao et al., 2018; read-out: EC50, anti-virus activity for WNV; cited from earlier work.
For series [12], the system named is DENV. Details: method as in Dong et al., 2008; Tao et al., 2018. The following applies: ref Dong et al., 2008; Tao et al., 2018; read-out: EC50, anti-virus activity for DENV; cited from earlier work.

In the case of `Cc1cc(N)c2cc(NC(=O)Nc3ccc4nc(C)cc(N)c4c3)ccc2n1` [NSC 12155], the “inhibitory activity toward ZIKV” value in [1] (no reference given) is “no inhibitory activity”.
For `O=c1c(O)cc([C@H]2Oc3cc(O)cc(O)c3C[C@H]2O)cc2c([C@H]3Oc4cc(O)cc(O)c4C[C@H]3O)cc(O)c(O)c12` [theaflavin], in series [2], the cytotoxic concentration (CC50) (in general, the concentration that lowers cell viability or growth by half) at 24 h is greater than 128 µM. For the same compound, the half-inhibitory concentration (IC50) (in general, the concentration needed to halve the response being measured) in [3] was 10.1 µM; in [8], 37.8 µM. Also, the inhibition at 20 µM in series [3] (at 20 μM, read-out: MTase inhibitory activity in initial screening) was greater than 50%. Moreover, the EC50 (in general, the concentration giving half of the maximal effect) in series [4] worked out at 8.19 µM. Moreover, the Kd (in general, the free concentration of one partner at which half of the binding sites on the other are occupied at equilibrium, for simple one-to-one binding) in [5] came out at 64.4 µM. In series [6], the “inhibitory activity toward SARS-CoV-2 by targeting the 3CL-protease” value was “significant inhibitory activity”. Further, the “reduction of viral RNA detected in the supernatant” value in series [7] (20 μM) is “more than 50%”. Besides, in series [7], the “effect on viral RNA copy numbers” value is “significantly reduced viral RNA copy numbers”.
For the compound `CCN(CC)CCCC(C)Nc1ccnc2cc(Cl)ccc12` (stereo not shown) [chloroquine], the EC50 is 2.55 µM in [4] and 1 to 5 µM in [1] (ref Li C. et al., 2017, Han et al., 2019, read-out: EC50, ZIKV infection in vitro). In addition, the “effect on viral RNA copy numbers” value in [7] is “significantly reduced viral RNA copy numbers”.
Turning to `Nc1ncnc2c1ncn2[C@@H]1O[C@H](C[C@@H](N)CC[C@H](N)C(=O)O)[C@@H](O)[C@H]1O` [sinefungin], the IC50 in [9] was roughly 0.63 µM; in series [10], roughly 14 µM; in series [3], 4.03 µM. The half-maximal effective concentration (EC50) in series [11] was 27 µM; in series [12] it was 77 µM; in [1] (ref Dong et al., 2008, Tao et al., 2018, read-out: EC50, anti-virus activity for ZIKV) it was greater than 50 µM.
